What was measured:
VM precursor cultures = test: Real-time RT-PCR analysis of VM precursor cultures; type: cell-based, rat
Description: Briefly, ventral mesencephalic tissues were dissected from E14.5 Sprague-Dawley (SD) rats, and then dissociated enzymatically (0.1% trypsin) and mechanically. Cells were seeded into 24-well (1×10^5/cm^2) culture plates pre-coated with 20 μg/mL poly-D-lysine (Sigma-Aldrich), and were maintained in 0.5 mL/well of minimum essential medium (MEM) supplemented with 10% fetal bovine serum (FBS), 10% horse serum (HS), 1 g/L glucose, 2 mM L-glutamine, 1 mM sodium pyruvate, 100 μM nonessential amino acids, 100 U/mL penicillin, and 100 μg/mL streptomycin (all purchased from Invitrogen). Cultures were maintained at 37° C. in a humidified atmosphere of 5% CO2 and 95% air. For DA neuron differentiation, VM precursor cultures, four hours after seeding, were switched to Dulbecco's Modified Eagle's Medium (DMEM)/Ham's F12 (1:1) containing N2 supplement (Invitrogen, Carlsbad, Calif.), penicillin and streptomycin. Immediately following the switch to DMEM/F12 medium, VM precursor cells were treated with various concentration of rat UCN (from Sigma-Aldrich, St. Louis, Mo.) for the indicated periods. For neutralization of endogenous UCN bioactivity, anti-UCN antibody (15 μg/mL) (Santa Cruz Biotechnology, Santa Cruz, Calif.) was added to the VM precursor cultures.
Total RNA was extracted from VM tissues or cultured VM precursors with TRIzol® reagent (Invitrogen). One-step real-time RT-PCR analysis was performed to determine the expression of genes (Power SYBR® Green RNA-to-CT™ 1-step kit, Applied Biosystems, Foster City, Calif.). Threshold cycle (CO value for each test gene was normalized to the Ct value for the β-actin control from the same RNA preparations. The ratio of transcription of each gene was calculated as 2^−(ΔCt), where ΔCt is the difference Cr (test gene)−Ct (β-actin). The primers used herein are listed in Table 1.

VM of E16.5 rat embryos = test: In vivo DA neuron differentiation in VM of rat embryos (immuno-histochemistry)
Description: The pregnant rats on day 12.5 of gestation were intra-peritoneally injected with saline or 10 μg/kg UCN every 24 hours for 3 days (FIGS. 7H & 7I) or 4 days (FIGS. 7A, 7B, & 7E-7G) before sacrifice. FIG. 7A is an image of immuno-staining against TH of rat E16.5 mesencephalon. FIG. 7B is cell counting analysis of TH^+ cells in the VM of E16.5 saline and UCN-treated embryos (**p<0.01 compared with saline group). […] FIGS. 7H and 7I show histone H3 acetylation (H) and Nurr1 recruitments (I) at the TH promoter by ChIP analyses which were performed with chromatin prepared from E15.5 VM tissue of saline or UCN-treated embryos (*p<0.05; **p<0.01 compared with saline groups). Con: control medium.
For immuno-histochemistry, rat embryos were perfused with 4% paraformaldehyde, cryopreserved with 30% sucrose in PBS overnight, embedded in Tissue Tek OCT compound (Sakura Finetek, Torrance, Calif.), and then frozen at −80° C. For Nurr1 staining, the embryos were perfused with 4% paraformaldehyde/0.15% picric acid followed by soaking in the same solution overnight at 4° C. Coronal sections (16 μm thick) were blocked with 2% FBS and 3% normal goat or normal donkey serum for 1 h at room temperature, and subsequently incubated with primary antibodies overnight at room temperature. Primary antibodies were rabbit anti-Lmx1b (1:3000), guinea-pig anti-Lmx1b (1:1500), rabbit anti-UCN (1:200), goat anti-CRHR1 (1:100), rabbit anti-CRHR2 (1:250), mouse anti-Nurr1 (1:100), rabbit anti-Nurr1 (1:100), and mouse anti-TH (1:2000). After washing with PBS, secondary antibodies conjugated to the FITC or rhodamine were applied to sections for 1 h. Sections were examined with fluorescent microscope or confocal microscope. Quantitative cell counts were performed in every third section through the entire A9-A10 populations in 5-10 embryos per condition.

rat TH promoter = test: ChIP at the TH promoter with chromatin from E15.5 VM tissue of treated embryos; type: in vivo; settings: 10 μg/kg UCN i.p. every 24 h for 3 days
Description: VM precursor cultures were treated with 1 μM UCN for about 1 to 2 days. VM cells for ChIP from rat embryos, the pregnant rats on day 12.5 of gestation were intra-peritoneally injected with saline as control or 10 μg/kg UCN as treatment every 24 h for 3 days before sacrifice. The ventral mesencephalon from E15.5 embryos was dissected. Cells were cross-linked with 1% formaldehyde, and stored at −80° C. before use.
Chromatin immuno-precipitation (ChIP) assays were performed using SimpleChIP® Enzymatic Chromatin IP kit (Cell Signaling Technology, Beverly, Mass.) by the instruction of the kit. Briefly, cross-linked chromatin in the cells was enzymatic digested to generate fragments with a length of approximately 150-900 bp (1 to 5 nucleosomes). The chromatin was subjected to immuno-precipitation using the following antibodies: anti-Nurr1 (Santa Cruz), anti-acetyl histone H3 (Ac-H3), anti-HDAC1, anti-CoREST (all from Upstate Biotechnology), anti-MeCP2 (Chemicon,), anti-Foxa2 (Cell signaling Technology), anti-Pitx3, and IgG (both from Abcam). Immuno-precipitated DNA fragments were collected by protein G magnetic beads. DNA/protein complexes were eluted from the beads and reverse cross-linked at 65° C. for 2 h in the presence of proteinase K. Purified DNA were subjected to real-time PCR using primers specific to rat TH promoter loci (referring to Table 2). […]

Urocortin [UCN]
L-aromatic amino acid decarboxylase (AADC) mRNA (VM precursor cultures; 1 μM UCN, 4 days): trends were found for increased | dopamine transporter (DAT) mRNA (VM precursor cultures; 1 μM UCN, 4 days): trends were found for increased | Foxa2 mRNA expression (VM precursor cultures; UCN): upregulated | Nurr1 mRNA expression (VM precursor cultures; UCN): upregulated | Pitx3 mRNA expression (VM precursor cultures; UCN): upregulated | TH mRNA expression (VM precursor cultures; UCN vs control medium): significantly elevated | mRNA expression specific for GABAergic neurons (GAD67) (VM precursor cultures; UCN vs control medium): no effect | mRNA expression specific for glutamatergic neurons (VGULT1) (VM precursor cultures; UCN vs control medium): no effect | mRNA expression specific for serotonergic neurons (SERT) (VM precursor cultures; UCN vs control medium): no effect | proportion of TH+/Nurr1+ cells in the VM (VM of E16.5 rat embryos; UCN treated vs saline-treated embryos, E16.5): significant proportion of the Nurr1+ cells differentiate into TH+ neurons | number of ventral mesencephalic TH+ cells (VM of E16.5 rat embryos; pregnant rats, 10 μg/kg UCN i.p. every 24 hours for 4 days, E16.5 embryos): increased number | Nurr1+ cell numbers in the VM (VM of E16.5 rat embryos; saline vs UCN-treated embryos, E16.5): no significant difference | Nurr1 binding to the TH promoter regions (NB2, NB3 and repeated CpGs) (rat TH promoter): more abundant | histone H3 acetylation in TH promoter regions (rat TH promoter): significantly increased

From patent US20160355782A1, “METHOD FOR ENHANCING DIFFERENTIATION OF DOPAMINERGIC NEURONS” (Buddhist Tzu Chi Medical Foundation, priority 2015, published 2016)
